From patent US4312867A, “Antibacterial compounds, processes for their preparation and compositions containing them” (Beecham Group Limited, priority 1979, dated 1982)
Converted amounts (≈) assume the structure as drawn.

What was measured:
Type in all cases: cell-based
[1] = tested on: E. coli NCTC 10418; assay: MIC veterinary bacteria (Table 2), serial dilution in agar; details: Escherichia coli, NCTC10418
[2] = tested on: Strep pyogenes C 2761; assay: MIC human bacteria (Table 1), serial dilution in nutrient agar; details: nutrient agar with 5% chocolated horse blood
[3] = tested on: S. typhimurium S18; assay: MIC veterinary bacteria (Table 2), serial dilution in agar; details: Salmonella enterica, diagnostic sensitivity test agar
[4] = tested on: Past haemolytica PA5; assay: as above; details: diagnostic sensitivity test agar
[5] = tested on: Strep suis (group D) SPS11; assay: as above; details: diagnostic sensitivity test agar
[6] = tested on: Past multocida PA2; assay: as above; details: diagnostic sensitivity test agar
[7] = tested on: Staph aureus W2827; assay: MIC human bacteria (Table 1), serial dilution in nutrient agar; details: Staphylococcus aureus, nutrient agar with 5% chocolated horse blood
[8] = tested on: Corynebacterium pyogenes CY1; assay: MIC veterinary bacteria (Table 2), serial dilution in agar; details: Trueperella pyogenes, diagnostic sensitivity test agar
[9] = tested on: Erysipelothrix rhusiopathiae NCTC 8163; assay: as above; details: NCTC8163; Erysipelothrix rhusiopathiae NCTC 8163; diagnostic sensitivity test agar; read-out: MIC
[10] = tested on: Corynebacterium xerosis 9755; assay: MIC human bacteria (Table 1), serial dilution in nutrient agar; details: nutrient agar with 5% chocolated horse blood, read-out: MIC
[11] = tested on: Staph aureus Oxford; assay: MIC veterinary bacteria (Table 2), serial dilution in agar; details: Staphylococcus aureus
[12] = tested on: Staph aureus 152 (pen. sens); assay: as above; details: Staphylococcus aureus, diagnostic sensitivity test agar
[13] = tested on: Haemophilus influenzae Q1; assay: MIC human bacteria (Table 1), serial dilution in nutrient agar; details: Haemophilus influenzae, Q1
[14] = tested on: Strep pyogenes B 2788; assay: as above; details: nutrient agar with 5% chocolated horse blood
[15] = tested on: K. aerogenes A; assay: as above; details: Klebsiella aerogenes, nutrient agar with 5% chocolated horse blood
[16] = tested on: Staph aureus B4 (pen. resis); assay: MIC veterinary bacteria (Table 2), serial dilution in agar; details: Staphylococcus aureus
[17] = tested on: P. mirabilis 889; assay: MIC human bacteria (Table 1), serial dilution in nutrient agar; details: Proteus mirabilis, 889
[18] = tested on: M pulmonis JB; assay: in vitro anti-mycoplasmal MIC, Friis' broth (Table 3)
Procedure: (§1) The minimum inhibitory concentrations (MIC) of the examples were determined by either:
(§2) (i) in Friis' broth using microtitre plates, by modification of the metabolic-inhibition test (Taylor-Robinson, Post Frad, Med. J., 1967, 43, 100).

[19] = tested on: M pneumoniae ATCC 15492; assay: as above
Procedure: as §1, §2

[20] = tested on: M dispar H225; assay: as above
Procedure: as §1, §2

[21] = tested on: M dispar NCTC 10125; assay: as above
Procedure: as §1, §2

[22] = tested on: M suipneumoniae J2206/183b; assay: as above
Procedure: as §1, §2

[23] = tested on: M suipneumoniae Str 11; assay: as above
Procedure: as §1, §2

[24] = tested on: M pneumoniae 427a; assay: as above
Procedure: as §1, §2

[25] = tested on: M fermentans MWKL4; assay: as above
Procedure: as §1, §2

[26] = tested on: Bord bronchiseptica B09; assay: MIC veterinary bacteria (Table 2), serial dilution in agar; details: diagnostic sensitivity test agar
[27] = tested on: Staph aureus Russell; assay: MIC human bacteria (Table 1), serial dilution in nutrient agar; details: Staphylococcus aureus, nutrient agar with 5% chocolated horse blood
[28] = tested on: Past multocida PA1; assay: MIC veterinary bacteria (Table 2), serial dilution in agar; details: diagnostic sensitivity test agar
[29] = tested on: Strep faecalis I; assay: MIC human bacteria (Table 1), serial dilution in nutrient agar; details: nutrient agar with 5% chocolated horse blood
[30] = tested on: Ps. aeruginosa 10662; assay: as above; details: Pseudomonas aeruginosa, nutrient agar with 5% chocolated horse blood
[31] = tested on: Pasteurella multocida 1633; assay: as above; details: Pasteurella multocida, 1633
[32] = tested on: E. coli E1; assay: MIC veterinary bacteria (Table 2), serial dilution in agar; details: Escherichia coli, diagnostic sensitivity test agar
[33] = tested on: Bacillus subtilis 6633; assay: MIC human bacteria (Table 1), serial dilution in nutrient agar; details: nutrient agar with 5% chocolated horse blood
[34] = tested on: Strep uberis SPU1; assay: MIC veterinary bacteria (Table 2), serial dilution in agar; details: diagnostic sensitivity test agar
[35] = tested on: Strep agalactiae SPA1; assay: as above; details: diagnostic sensitivity test agar
[36] = tested on: E. coli ESS; assay: MIC human bacteria (Table 1), serial dilution in nutrient agar; details: Escherichia coli; E. coli ESS; nutrient agar with 5% chocolated horse blood; read-out: MIC
[37] = tested on: Strep pyogenes A 64/848; assay: as above; details: nutrient agar with 5% chocolated horse blood
[38] = tested on: M pulmonis JB; assay: in vitro anti-mycoplasmal MIC, Friis' agar (Table 3)
Procedure: as §1
(§3) or (ii) by serial dilution in Friis' agar medium.

[39] = tested on: M gallisepticum S6; assay: as above
Procedure: as §1, §3

[40] = tested on: M pneumoniae ATCC 15492; assay: as above
Procedure: as §1, §3

[41] = tested on: M synoviae ATCC 25204; assay: as above
Procedure: as §1, §3

[42] = tested on: M arthritidis ATCC 14124; assay: as above
Procedure: as §1, §3

[43] = tested on: M bovigenitalium ATCC 14173; assay: as above
Procedure: as §1, §3

[44] = tested on: M hyosynoviae ATCC 25591; assay: as above
Procedure: as §1, §3

[45] = tested on: M alkalescens NCTC 10135; assay: as above
Procedure: as §1, §3

[46] = tested on: M hyorhinis ATCC 23234; assay: as above
Procedure: as §1, §3

[47] = tested on: M pneumoniae 427a; assay: as above
Procedure: as §1, §3

[48] = tested on: M fermentans MWKL4; assay: as above
Procedure: as §1, §3

[49] = tested on: Haemophilus influenzae Wy21; assay: MIC human bacteria (Table 1), serial dilution in nutrient agar; details: Haemophilus influenzae, WY21
[50] = tested on: Staph aureus Oxford; assay: as above; details: Staphylococcus aureus, nutrient agar with 5% chocolated horse blood
[51] = tested on: E. coli NCTC 10418; assay: as above; details: Escherichia coli, NCTC10418
[52] = tested on: S. dublin S7; assay: MIC veterinary bacteria (Table 2), serial dilution in agar; details: Salmonella enterica, diagnostic sensitivity test agar
[53] = tested on: Sarcina lutea 8340; assay: MIC human bacteria (Table 1), serial dilution in nutrient agar; details: Micrococcus luteus, nutrient agar with 5% chocolated horse blood, read-out: MIC
[54] = tested on: Strep dysgalaciae SPD1; assay: MIC veterinary bacteria (Table 2), serial dilution in agar; details: diagnostic sensitivity test agar
[55] = tested on: Bord bronchiseptica B08; assay: as above; details: diagnostic sensitivity test agar

## C/C(=C\C(=O)OCCCS(N)(=O)=O)CC1OCC(CC2OC2C(C)C(C)O)C(O)C1O (stereo not shown) [Example 1, 3-Sulphamoylpropyl monate A]
[1]
  MIC: > 80 µg/mL
[2]
  MIC: 2.5 µg/mL (≈ 5.37 µM)
[3]
  MIC: > 80 µg/mL
[4]
  MIC: 10 µg/mL (≈ 21.5 µM)
[5]
  MIC: 80 µg/mL (≈ 172 µM)
[6]
  MIC: 0.156 µg/mL (≈ 0.335 µM)
[7]
  MIC: 100 µg/mL (≈ 215 µM)
[8]
  MIC: > 80 µg/mL
[9]
  MIC: > 80 µg/mL
[10]
  MIC: > 100 µg/mL
[11]
  MIC: 40 µg/mL (≈ 85.9 µM)
[12]
  MIC: 20 µg/mL (≈ 43 µM)
[13]
  MIC: 0.05 µg/mL (≈ 0.107 µM)
[14]
  MIC: 2.5 µg/mL (≈ 5.37 µM)
[15]
  MIC: > 100 µg/mL
[16]
  MIC: 40 µg/mL (≈ 85.9 µM)
[17]
  MIC: 100 µg/mL (≈ 215 µM)
[18]
  MIC: 0.02 µg/mL (≈ 0.043 µM)
[19]
  MIC: 2.5 µg/mL (≈ 5.37 µM)
[20]
  MIC: 0.039 µg/mL (≈ 0.0838 µM)
[21]
  MIC: 0.078 µg/mL (≈ 0.168 µM)
[22]
  MIC: 0.312 µg/mL (≈ 0.67 µM)
[23]
  MIC: 0.078 µg/mL (≈ 0.168 µM)
[24]
  MIC: 2.5 µg/mL (≈ 5.37 µM)
[25]
  MIC: 0.039 µg/mL (≈ 0.0838 µM)
[26]
  MIC: 20 µg/mL (≈ 43 µM)
[27]
  MIC: 50 µg/mL (≈ 107 µM)
[28]
  MIC: 0.625 µg/mL (≈ 1.34 µM)
[29]
  MIC: > 100 µg/mL
[30]
  MIC: > 100 µg/mL
[31]
  MIC: 0.5 µg/mL (≈ 1.07 µM)
[32]
  MIC: > 80 µg/mL
[33]
  MIC: 10 µg/mL (≈ 21.5 µM)
[34]
  MIC: 1.25 µg/mL (≈ 2.68 µM)
[35]
  MIC: 2.5 µg/mL (≈ 5.37 µM)
[36]
  MIC: 25 µg/mL (≈ 53.7 µM)
[37]
  MIC: 0.5 µg/mL (≈ 1.07 µM)
[38]
  MIC: 0.039 µg/mL (≈ 0.0838 µM)
[39]
  MIC: > 10 µg/mL
[40]
  MIC: 5 µg/mL (≈ 10.7 µM)
[41]
  MIC: < 0.02 µg/mL
[42]
  MIC: > 10 µg/mL
[43]
  MIC: 0.039 µg/mL (≈ 0.0838 µM)
[44]
  MIC: 0.156 µg/mL (≈ 0.335 µM)
[45]
  MIC: 0.039 µg/mL (≈ 0.0838 µM)
[46]
  MIC: 0.312 µg/mL (≈ 0.67 µM)
[47]
  MIC: 2.5 µg/mL (≈ 5.37 µM)
[48]
  MIC: 0.078 µg/mL (≈ 0.168 µM)
[49]
  MIC: 0.05 µg/mL (≈ 0.107 µM)
[50]
  MIC: 50 µg/mL (≈ 107 µM)
[51]
  MIC: > 100 µg/mL
[52]
  MIC: > 80 µg/mL
[53]
  MIC: > 100 µg/mL
[54]
  MIC: 2.5 µg/mL (≈ 5.37 µM)
[55]
  MIC: 80 µg/mL (≈ 172 µM)
